Test results reported in patent US10441568B2, “Nitroxide radicals for the treatment of diseases of the respiratory tract” (priority 2015, dated 2019).
Entries after “also recorded” stand apart in the source; their conditions may differ.

What was measured:
[1] = system: mice with OVA-induced chronic asthma; assay: Pulmonary collagen content, severe (chronic) asthma model; assay type: in vivo; conditions: FIG. 16
Experimental: Bronchoalveolar lavage (BAL) fluid (also referred to herein as “BALf”) and bronchial submucosal inflammation are characteristic features of asthma. Mice were euthanized with an overdose of 50 mg/kg pentobarbital and ice-cold phosphate buffer saline (PBS) (0.6 ml) was instilled into the lungs. BAL fluid was obtained by three aspirations via tracheal cannulation, centrifuged, and the supernatant collected and stored at −70° C. Cell pellets were re-suspended in PBS and 100 μl aliquots placed onto slides and centrifuged (200 g, 4° C., 10 minutes) in a cytospin machine. Induction of oxidative stress was evaluated using a 2′,7′-dichlorofluorescein fluorescence assay, and total IgE, IgG2a, panel of cytokines, transforming growth factors, collagen, protein nitration and lipid peroxidation were measured using commercial kits according to the manufacturer's recommendations. […]
3-CP was administered orally (1 weight percent in chow) during the entire experiment, and dexamethasone (Dex) was administered via IP injection (1 mg/kg) one hour before each challenge. Inflammatory cell counts and pulmonary collagen content were then evaluated according to procedures described hereinabove, in order to assess effects on inflammation and remodeling, respectively.

3-nitrotyrosine (3-NT) = assay: Protein nitration (3-nitrotyrosine) in lung homogenates, OVA asthma model; assay type: in vivo, mice; conditions: 3-CP via all tested modes of delivery (oral, IP, IN), FIG. 8
Experimental: (§1) Bronchoalveolar lavage (BAL) fluid (also referred to herein as “BALf”) and bronchial submucosal inflammation are characteristic features of asthma. Mice were euthanized with an overdose of 50 mg/kg pentobarbital and ice-cold phosphate buffer saline (PBS) (0.6 ml) was instilled into the lungs. BAL fluid was obtained by three aspirations via tracheal cannulation, centrifuged, and the supernatant collected and stored at −70° C. Cell pellets were re-suspended in PBS and 100 μl aliquots placed onto slides and centrifuged (200 g, 4° C., 10 minutes) in a cytospin machine. Induction of oxidative stress was evaluated using a 2′,7′-dichlorofluorescein fluorescence assay, and total IgE, IgG2a, panel of cytokines, transforming growth factors, collagen, protein nitration and lipid peroxidation were measured using commercial kits according to the manufacturer's recommendations. A Sircol™ collagen assay kit was obtained from Biocolor Life Sciences Assays, a protein nitration assay kit was obtained from Abcam, and other assay kits were obtained from PeproTech Asia.
In order to determine whether 3-CP reduces protein nitration, a form of cell damage induced by peroxynitrite (an anion generally believed to be formed in vivo by a reaction of superoxide radical and nitric oxide), lung homogenates were assayed for 3-nitrotyrosine (3-NT) levels.

[2] = system: bleomycin-induced pulmonary fibrosis; assay: Collagen content in lung tissue, bleomycin pulmonary fibrosis model; assay type: in vivo, mice; conditions: 3-CP 150 mg/kg daily intranasal, 14 days, FIG. 20
Experimental: Bronchoalveolar lavage (BAL) fluid (also referred to herein as “BALf”) and bronchial submucosal inflammation are characteristic features of asthma. Mice were euthanized with an overdose of 50 mg/kg pentobarbital and ice-cold phosphate buffer saline (PBS) (0.6 ml) was instilled into the lungs. BAL fluid was obtained by three aspirations via tracheal cannulation, centrifuged, and the supernatant collected and stored at −70° C. Cell pellets were re-suspended in PBS and 100 μl aliquots placed onto slides and centrifuged (200 g, 4° C., 10 minutes) in a cytospin machine. Induction of oxidative stress was evaluated using a 2′,7′-dichlorofluorescein fluorescence assay, and total IgE, IgG2a, panel of cytokines, transforming growth factors, collagen, protein nitration and lipid peroxidation were measured using commercial kits according to the manufacturer's recommendations. A Sircol™ collagen assay kit was obtained from Biocolor Life Sciences Assays, a protein nitration assay kit was obtained from Abcam, and other assay kits were obtained from PeproTech Asia. […]
The degree of fibrosis was evaluated by measuring collagen content in lung tissue.

IL-13 = IL-13 level in OVA asthma model; assay type: in vivo, BALB/c mice; conditions: for IL-13 level: lung tissue (table title)
Experimental: (§2) All experimental procedures were carried out in accordance with the NIH Guidelines for the Care and Use of Laboratory Animals. Specific pathogen-free (SPF) male BALB/c mice (6-7 weeks of age, 18-22 grams), routinely screened serologically for relevant respiratory pathogens, were maintained in an animal housing facility for 1 week before use and given access to food and water ad libitum. Animals were randomly assigned to the indicated experimental groups, and sensitized with two intraperitoneal (IP) injections (20 μg ovalbumin (OVA) emulsified in 2 mg aluminum hydroxide (an adjuvant) in 200 μl phosphate buffer saline (PBS), pH 7.4), on days 1 and 10.
(§3) After another week, the animals were challenged by exposure to ovalbumin (OVA) aerosol (1%, w/v, in PBS) for 30 minutes each day on days 17, 18 and 19, in order to elicit an inflammatory reaction in the lungs characterized by airway hyper-responsiveness (AHR), an influx of inflammatory cells (particularly eosinophils), and increased pulmonary levels of various cytokines and transforming growth factors, protein nitration and lipid peroxidation.
as §1
The efficacy of oral administration of 3-CP (1 weight percent in chow) during the sensitization period and/or challenge period was then compared to IP injection (˜300 mg/kg, 0.5 hour before the OVA challenge) or intranasal instillation (˜150 mg/kg, 0.5 hour before the OVA and 6 hours later) of 3-CP, as well as to dexamethasone treatment (1 mg/kg, 3 daily IP injections, 0.5 hour prior to the challenge with OVA aerosol).
In order to assess the effect of 3-CP on inflammatory signaling pathways, […] to procedures described hereinabove, upon oral, intranasal or IP administration of 3-CP.

[3] = system: ovalbumin-induced murine model of asthma; assay: Inflammatory cell counts in BAL fluid in OVA asthma model; assay type: in vivo, BALB/c mice
Experimental: as §2, §3
The features of allergic inflammation typically reached their peak a day or two after the final exposure. Mice were then subjected to one of the following treatments: (i) sham-sensitization plus challenge with PBS; (ii) positive control-sensitization plus challenge with OVA; (iii) sensitization plus challenge with OVA and various indicated treatments (e.g., with nitroxide or dexamethasone), including different modes (oral, IP, intranasal, inhalation), time windows (sensitization stage, challenge stage, both stages and after the last challenge), and doses of nitroxide administration.
as §1
Control and experimental groups contained 10 mice each. The effects of the nitroxides were investigated by feeding the mice ad libitum a diet of nitroxide-containing chow (1 weight percent) during both ovalbumin (OVA)-induced sensitization and challenging periods (days −2-19), during the sensitization period (days −2-11) or challenge period (days 13-19). Nitroxide-containing chow were prepared by dissolving 500 grams chow in a minimum volume of water containing 5 grams nitroxide and 5 grams commercial chicken soup powder, preparing the chow and drying it at 37° C. (animals were reluctant to eat nitroxide-containing chow until chicken soup powder was added).
3-CP was also administered using 3 daily intraperitoneal (IP) injections (200 μl, 0.15 M, ˜300 mg/kg) 0.5 hour prior to the challenge with OVA aerosol, or by nasal instillation (50 μl, 0.3 M, ˜150 mg/kg) twice a day 0.5 hour prior to the challenge with OVA aerosol and 6 hours later without exceeding its maximally tolerated dose, which has been previously established to be 300-500 mg/kg. Both 3-CP and TPL were non-toxic when administered orally or via IP injection to untreated OVA-challenged mice for 22 days. […]

[4] = oral, 1 weight percent in chow, FIG. 4

**Q.** With `CC1(C)CC(C(N)=O)C(C)(C)N1[O]` (stereo not drawn) [3-CP, 3-Carbamoyl-2,2,5,5-tetramethyl-pyrrolidin-1-oxyl] as the compound, how does the “effect on increase in collagen content of the lung” value ([1]; 3-CP oral 1 weight percent in chow during entire experiment) read?
**A.** The value was “completely reversed the increase in collagen content”.

**Q.** What about the “reducing collagen content, 3-CP compared with dexamethasone” value ([1]; 3-CP oral, dexamethasone 1 mg/kg IP before each challenge) of the same compound?
**A.** The value was “more effective than dexamethasone treatment at reducing collagen content”.

**Q.** What about the “effect on pulmonary 3-NT levels” value (3-nitrotyrosine (3-NT)) of the same compound?
**A.** The value was “markedly suppressed 3-NT levels as compared to the vehicle control as well as treatment with dexamethasone”.

**Q.** And the “effect on bleomycin-induced pulmonary fibrosis, pulmonary collagen content” value [2]?
**A.** Its value is “significantly inhibited”.

**Q.** What about the “reducing IL-13 level, oral 3-CP compared with intranasal 3-CP and IP dexamethasone” value (IL-13; FIG. 7D and Table 1) of the same compound?
**A.** Its value is “more effective than intranasal instillation of 3-CP and IP injection of dexamethasone”.

**Q.** And the IL-13 level (IL-13; OVA IN-C: 3-CP intranasal during challenge)?
**A.** The IL-13 level was 1.99 ng/mg.

**Q.** What about the IL-13 level (IL-13; OVA IP-C: 3-CP intraperitoneal during challenge) of the same compound?
**A.** Its IL-13 level is 1.38 ng/mg.

**Q.** And the IL-13 level (IL-13; OVA oral-C: 3-CP oral during challenge)?
**A.** The IL-13 level was 2.01 ng/mg.

**Q.** And the IL-13 level (IL-13; OVA oral-S&C: 3-CP oral during sensitization and challenge)?
**A.** The IL-13 level was 1.67 ng/mg.

**Q.** And the IL-13 level (IL-13; OVA oral-S: 3-CP oral during sensitization)?
**A.** The IL-13 level was 2.20 ng/mg.

**Q.** What about the “effect on OVA-induced increase in the level of IL-13” value (IL-13; lung tissue, FIG. 7D and Table 1) of the same compound?
**A.** Its value is “inhibited”.

**Q.** And the “modulating IL-13 level, oral compared with IP 3-CP” value (IL-13; oral administration vs IP injection)?
**A.** The value was “consistently more effective than IP injection of 3-CP”.

**Q.** And the “levels of inflammatory cells, oral 3-CP in both periods compared with other regimens” value ([3]; oral 1 weight percent in chow during sensitization and challenge periods, FIG. 5)?
**A.** Its value is “more effective than IP injection or intranasal instillation of 3-CP, oral administration of 3-CP during the sensitization period or challenge period alone, or treatment with dexamethasone; also recorded: more effective than treatment with dexamethasone”.

**Q.** What about the “BAL inflammatory cell/eosinophil count attenuation, 3-CP compared with TPL” value [3, 4] of the same compound?
**A.** The value was “considerably more effective than TPL”.

**Q.** And the “effect on OVA-induced increase in total inflammatory cell and eosinophil counts in BAL fluid” value [3, 4]?
**A.** Its value is “attenuated the increase in total inflammatory cell counts and eosinophil counts”.
